Earlier results on six compounds are cited in patent publication EP2739646B1, “COMPREHENSIVE BUFFER SYSTEM FOR RENATURING HUMAN PROINSULIN OR PROINSULIN DERIVATIVES” (Hermann, Stefan, priority 2011, dated 2012).

Assay in data set [1]: not given
The source holds these as a separate data set.

Read-outs that look alike come from different tables or passages of the source. A value given as a limit tells only on which side of the number the result lay.

On to `C[C@H](N)C(=O)O` [alanine], for which, under “at 25°C”, the water solubility was 16.5 g/100g water. Take `N=C(N)NCCC[C@H](N)C(=O)O` [arginine]: the figures for the pKa in data set [1] (first value listed) and in data set [1] (second value listed) were 2.01 and 9.4, respectively. Consider `N[C@@H](CS)C(=O)O` [cysteine], for which, where the note is “at 25°C”, the water solubility is more than 50 g/100g water. Moreover, the results for the pKa in data set [1] (first value listed), in data set [1] (second value listed) and in data set [1] (third value listed) were 2.05, 10.25 and 8.00, respectively. For the compound `O=C(O)CCCC(=O)O` [glutaric acid], under “temperature not given”, the water solubility is reported as 64.0 g/100ml. As for `O=C(O)[C@@H]1CCCN1` [proline], the pKa in data set [1] (first value listed) is 2.0; in data set [1] (second value listed) it was 10.6. In the case of `CCCCC(=O)O` [valeric acid], the water solubility (temperature not given) was 4.97 g/100ml.

Usually pKa stands for the pH at which an ionisable group is half protonated.
